Reference: publication PMC5667895, “Cellodextrin phosphorylase from Ruminiclostridium thermocellum: X-ray crystal structure and substrate specificity analysis” (Carbohydrate Research, 2017)

Experiments:
[1] = molecular target: T1, cellodextrin phosphorylase (CDP) (Acetivibrio thermocellus, UniProt Q93HT8); experiment: X-ray crystallography, […] Å; assay type: binding
T1 construct: gene cdp-ym4

[2] = molecular target: T1, cellodextrin phosphorylase (CDP); experiment: capillary electrophoresis competition assay of glucan polymerization; assay type: biochemical
[3] = substrate: OC[C@H]1O[C@@H](Oc2ccccc2)[C@H](O)[C@@H](O)[C@@H]1O; experiment: phosphate release assay, Michaelis-Menten fit; assay type: biochemical, Acetivibrio thermocellus; details: acceptor, synthetic direction, 10 mM Glc-1-P, HEPES 50 mM pH 7.5, 21 °C

OC[C@H]1O[C@@H](O[C@H]2[C@H](O)[C@@H](O)[C@H](O[C@H]3[C@H](O)[C@@H](O)[C@H](O[C@H]4[C@H](O)[C@@H](O)C(O)O[C@@H]4CO)O[C@@H]3CO)O[C@@H]2CO)[C@H](O)[C@@H](O)[C@@H]1O (stereo partly drawn) [(β-1→4-Glc)4]
X-ray crystallography, 3.0 Å ([1]; crystal soaked with 10 mM cellohexaose, density modelled as cellotetraose, with phosphate, active site subsites −1 to +3): additional electron density in the active site cleft, which was interpreted as a cellotetraose molecule

N[C@H]1[C@H](O[C@H]2[C@H](O)[C@@H](O)[C@H](O[C@H]3[C@H](O)[C@@H](O)C(O)O[C@@H]3CO)O[C@@H]2CO)O[C@H](CO)[C@@H](O)[C@@H]1O (stereo partly drawn) [(β-1→4-GlcN(Glc)2)]
capillary electrophoresis competition assay of glucan polymerization ([2]; 5 mM trisaccharide vs 0.5 mM (β-1→4-Glc)3-APTS, 50 mM Glc-1-P, HEPES 50 mM pH 7.6, 40 °C, acceptor competition, also an acceptor substrate): the average extension of (β-1→4-Glc)3-APTS reduced substantially

OC1OC[C@@H](O[C@@H]2OC[C@@H](O[C@@H]3OC[C@@H](O)[C@H](O)[C@H]3O)[C@H](O)[C@H]2O)[C@H](O)[C@H]1O (stereo partly drawn) [(β-1→4-Xyl)3]
capillary electrophoresis competition assay of glucan polymerization ([2]; 10 mM xylotriose vs 13.5 μM (β-1→4-Glc)6-APTS, 10 mM Glc-1-P, HEPES 50 mM pH 7.5, 40 °C, acceptor competition): suggesting binding of xylotriose to the active site of the enzyme

O=P(O)(O)O[C@H]1O[C@H](CO)[C@@H](O)[C@H](O)[C@@H]1O [Man-1-P]
capillary electrophoresis competition assay of glucan polymerization ([2]; 10 mM Man-1-P vs 1 mM Glc-1-P and 2 μM (β-1→4-Glc)6-APTS, HEPES 50 mM pH 7.5, 40 °C, competitive with donor): Man-1-P caused a great decrease in glucan oligomer length

O=P(O)(O)O [phosphate]
X-ray crystallography, 3.0 Å ([1]; crystal grown with 10 mM phosphate buffer, active site, adjacent to the glucan): interpreted as a cellotetraose molecule with an adjacent phosphate ion

B1: cellodextrin phosphorylase (CDP) (Acetivibrio thermocellus) (protein)
chain: MITKVTARNNKITPVELLNQKFGNKINLGNFADAVFTDAAFKNVAGIANLPMKAPVMQVLMENCIVSKYLKQFVPDRSVCFVEEGQKFYIVLEDGQKIEVPEDVNKALKATVSDVKHWAGYLTEDGEHVIDLLKPAPGPHFYVNLLIGNRLGFKRTLQTTPKSVVDRFGRGSFRSHAATQVLATRFDMRQEENGFPANRQFYLYEDGKQIFYSALIDDNIVEATCKHSCNRTVIKYKTACNLEITRTIFLVPHKKGFPLATELQRIEIKNASDKARNLSITYTGMFGTGAVHAIFEDVTYTNVIMQSAALYNDKGEFIGITPDYYPEEFKQDTRFVTMIVRNGDEKSFPQSFCTDYNDFVGTGTLEHPAGGCNLNNKLNRKGPGFFALGAPFTVEPGKTVIIDTFTGLSSSKDNENYSDAVMLRELDNLLRYFEKSESVEETLNEIINFHENYGKYFQFNTGNKLFDSGFNRNLAFQVLYQTFMSRSFGQTQKGYREIGFREIQDLFASMYYFINIGYQDFVKELLFEWTANVYKMGYANHNFYWVGKQPGLYSDDSLWLLQAYYRYIIYTKDTSVLNEEVPVADGNNEKRAVRETLKAIIQYSACISVGDHGLPLLDLADWNDCLKIASNSIDGATKEKLYYEQLKKTNGKYGDRFMSDYSESVMNAFLLKLAIDHLAEIATLDNDTQLAQQMSELSKEVTDRIQKHAWKENFFARVLINRYKDGSYTYLGAKGDKLSADPNIDGVYFLNSFAWSVLSDVATDEQIAIMVDVIKKHLLTPYGLRLVTPADLNKIANDTATGHYFFGDRENGAVFKHASMMAVAALIKAAKKVKDNELAKEMARIAYFMIDLVLPYKNLENPFQVAGNPRICTQYINTDTGENIGPLLSGTATWLNLNLISLAGIEYTRDGISFNPILREEETQLNFTLKAPKCSYKFSITKPVGFARMESSEYELFVDGQKIDNTVIPMYTDEKEHIVTLKFK
Km [3]: 24 ± 13 mM | kcat [3]: 15 ± 6.3 s⁻¹ | kcat/Km [3]: 630 M⁻¹ s⁻¹
